Test results as given in patent publication US20230159538A1, “PYRROLIDINE-PYRAZOLES AS PYRUVATE KINASE ACTIVATORS” (Global Blood Therapeutics, Inc., priority 2020, published 2023).

Experiments:
[1] = biological target: T1, Pyruvate kinase M2 (PKM2) in H1299 cells (Homo sapiens, UniProt P14618); test: Cell based assay for activation of pyruvate kinase M2 in lung carcinoma cell line (NADH/LDH coupled assay on cell lysate); conditions: PKM2 cellular assay; for AC50: H1299 cells, 90 minutes with compound; for PKM2 % activation: maximal activation level relative to the activation level achieved by AG-348 @ 10 μM
T1 construct: endogenous in cells; host or cells: H1299
Method: Cell Based Assay for Activation of Pyruvate Kinase M2 in Lung Carcinoma Cell Line
H1299 cells were seeded in 96-well plates at 2,000 cells/well (100 uL). Treated plates were incubated overnight at 37° C. with 5% CO2. Compounds were diluted in complete media and added to cells in the presence of 1% DMSO. Cells were incubated with compound for 90 minutes at 37° C. and 5% CO2 before washing three times with PBS to remove residual compound and then lysed in lysis buffer (Cell Signaling). […] PKM2 activity was measured at steady state using a coupled enzyme activation system based on NADH consumption. PKM2 produces pyruvate and the coupled system uses lactate dehydrogenase (LDH) to reduce pyruvate to lactate with the concomitant oxidation of NADH to NAD^+. Conversion of NADH to NAD^+ was monitored using a SPECTROstar Nano plate reader (BMG Labtech) at a wavelength of 340 nm and subtraction of background absorbance measured at 750 nm. The change in NADH absorbance after PEP addition was monitored and slope obtained by subtracting baseline at 750 nm followed by least squares fitting to a simple linear regression model. A 10-point curve was generated to calculate the AC50 values by fitting the rates of NADH consumption against increasing concentration of compound.

[2] = biological target: T2, Human pyruvate kinase R (PKR) (Homo sapiens, UniProt P30613); test: Biochemical assay for activation of pyruvate kinase R (Kinase-Glo luminescence, ATP generation); conditions: for AC50: 0.1 nM PKR, 2 mM FBP, 0.3 mM ADP, 0.1 mM PEP; for PKR % activation: maximal activation level relative to the activation level achieved by AG-348 @ 10 μM
T2 construct: Human pyruvate kinase R (PKR), residues 14-574; 6x-His (N, cleaved yes); 8x-Arg (N, cleaved yes); SUMO (N, cleaved yes); host or cells: E. coli
Procedure, shortened: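 E. coli-expressed human PKR, freed of its His-Arg-SUMO tag and purified by anion exchange and size exclusion, was tested for activation. Read-out was luminescent measurement of ATP generation with Kinase-Glo reagent.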

T2 sequence (P30613 14-574): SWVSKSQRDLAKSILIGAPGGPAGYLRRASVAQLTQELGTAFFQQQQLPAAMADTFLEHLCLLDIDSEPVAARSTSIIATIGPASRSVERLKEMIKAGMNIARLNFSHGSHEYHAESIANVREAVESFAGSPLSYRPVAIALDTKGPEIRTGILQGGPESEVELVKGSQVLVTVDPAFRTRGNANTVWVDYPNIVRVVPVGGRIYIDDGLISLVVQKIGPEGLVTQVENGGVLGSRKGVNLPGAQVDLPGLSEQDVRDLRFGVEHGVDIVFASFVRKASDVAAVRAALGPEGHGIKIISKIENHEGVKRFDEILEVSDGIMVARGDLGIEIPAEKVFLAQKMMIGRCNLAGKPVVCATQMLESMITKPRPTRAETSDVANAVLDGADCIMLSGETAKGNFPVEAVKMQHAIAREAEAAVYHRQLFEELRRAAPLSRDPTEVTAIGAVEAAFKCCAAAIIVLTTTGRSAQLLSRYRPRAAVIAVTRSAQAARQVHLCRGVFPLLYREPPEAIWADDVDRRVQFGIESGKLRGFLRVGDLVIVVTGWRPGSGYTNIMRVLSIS
T1 sequence (P14618 2-531 limits assumed): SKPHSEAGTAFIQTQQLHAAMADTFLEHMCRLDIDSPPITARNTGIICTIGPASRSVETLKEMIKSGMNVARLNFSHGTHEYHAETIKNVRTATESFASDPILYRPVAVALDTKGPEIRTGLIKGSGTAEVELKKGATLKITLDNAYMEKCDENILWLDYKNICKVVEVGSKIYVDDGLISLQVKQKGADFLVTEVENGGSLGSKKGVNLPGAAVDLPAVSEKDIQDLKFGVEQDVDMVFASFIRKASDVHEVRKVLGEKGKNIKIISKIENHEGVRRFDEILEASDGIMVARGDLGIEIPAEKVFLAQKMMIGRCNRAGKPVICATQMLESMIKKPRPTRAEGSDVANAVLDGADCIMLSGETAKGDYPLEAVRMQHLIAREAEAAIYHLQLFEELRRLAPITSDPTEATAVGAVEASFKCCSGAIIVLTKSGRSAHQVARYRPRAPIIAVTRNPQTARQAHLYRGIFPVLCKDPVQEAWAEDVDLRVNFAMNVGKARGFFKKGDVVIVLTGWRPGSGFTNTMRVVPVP

Row | Compound | AC50 [1] [nM] | AC50 [2] [nM] | PKM2 % activation [1] [%] | PKR % activation [2] [%]
1 | O=S(=O)(c1ccc2c(c1)NCCO2)N1Cc2cn(S(=O)(=O)c3ccc4ncsc4c3)nc2C1 [Compound 12, 6-{[2-(1,3-benzothiazole-6-sulfonyl)-2H,4H,5H,6H-pyrrolo[3,4-c]pyrazol-5-yl]sulfonyl}-3,4-dihydro-2H-1,4-benzoxazine] | 23 | 41 | – | –
2 | N[C@H](C(=O)N1Cc2cn(S(=O)(=O)c3ccc4ncsc4c3)nc2C1)c1ccccc1 [Compound 14, (2S)-2-amino-1[2-(1,3-benzothiazole-6-sulfonyl)-2H,4H,5H,6H-pyrrolo[3,4-c]pyrazol-5-yl]-2-phenylethan-1-one] | 53 | 110 | – | –
3 | Cc1cccc([C@@H](N)C(=O)N2Cc3cn(S(=O)(=O)c4ccc5ncsc5c4)nc3C2)c1 [Compound 37, (2R)-2-amino-1-[2-(1,3-benzothiazole-6-sulfonyl)-2H,4H,5H,6H-pyrrolo[3,4-c]pyrazol-5-yl]-2-(3-methylphenyl)ethan-1-one] | 17 | 21 | – | –
4 | O=C(N1Cc2cn(S(=O)(=O)c3ccc4ncsc4c3)nc2C1)[C@]1(c2ccccn2)CCOC1 (single isomer, unassigned) [Compound 20, 6-({5-[(3S)-3-(pyridin-2-yl)oxolane-3-carbonyl]-2H,4H,5H,6H-pyrrolo[3,4-c]pyrazol-2-yl}sulfonyl)-1,3-benzothiazole or 6-({5-[(3R)-3-(pyridin-2-yl)oxolane-3-carbonyl]-2H,4H,5H,6H-pyrrolo[3,4-c]pyrazol-2-yl}sulfonyl)-1,3-benzothiazole] | 14 | 44 | 60 | 113
5 | O=C([C@@H](CO)c1ccccc1)N1Cc2cn(S(=O)(=O)c3ccc(OC(F)F)cc3)nc2C1 (single isomer, unassigned) [Compound 7, (2R)-1-{2-[4-(difluoromethoxy)benzenesulfonyl]-2H,4H,5H,6H-pyrrolo[3,4-c]pyrazol-5-yl}-3-hydroxy-2-phenylpropan-1-one, or (2S)-1-{2-[4-(difluoromethoxy)benzenesulfonyl]-2H,4H,5H,6H-pyrrolo[3,4-c]pyrazol-5-yl}-3-hydroxy-2-phenylpropan-1-one] | 22 | 76 | 116 | 137
6 | N[C@@H](C(=O)N1Cc2cn(S(=O)(=O)c3ccc4ncsc4c3)nc2C1)c1ccccc1 [Compound 15, (2R)-2-amino-1-[2-(1,3-benzothiazole-6-sulfonyl)-2H,4H,5H,6H-pyrrolo[3,4-c]pyrazol-5-yl]-2-phenylethan-1-one] | 26 | 45 | – | –
7 | O=C(N1Cc2cn(S(=O)(=O)c3ccc4ncsc4c3)nc2C1)[C@]1(c2ccccn2)CCOC1 (single isomer, unassigned) [Compound 19, 6-({5-[(3S)-3-(pyridin-2-yl)oxolane-3-carbonyl]-2H,4H,5H,6H-pyrrolo[3,4-c]pyrazol-2-yl}sulfonyl)-1,3-benzothiazole or 6-({5-[(3R)-3-(pyridin-2-yl)oxolane-3-carbonyl]-2H,4H,5H,6H-pyrrolo[3,4-c]pyrazol-2-yl}sulfonyl)-1,3-benzothiazole] | – | 699 | – | 59
8 | C[C@@H](O)[C@H](C(=O)N1Cc2cn(S(=O)(=O)c3ccc4ncsc4c3)nc2C1)c1ccccc1 [Compound 4] | – | 1810 | – | 100
9 | O=C([C@H](O)c1ccccc1Cl)N1Cc2cn(S(=O)(=O)c3ccc4cn[nH]c4c3)nc2C1 [Compound 67, (2R)-2-(2-chlorophenyl)-2-hydroxy-1-[2-(1H-indazole-6-sulfonyl)-2H,4H,5H,6H-pyrrolo[3,4-c]pyrazol-5-yl]ethan-1-one] | – | 29 | – | –
10 | C[C@@H](O)[C@@H](C(=O)N1Cc2cn(S(=O)(=O)c3ccc(OC(F)F)cc3)nc2C1)c1ccccc1Cl (single isomer, unassigned) [Compound 68] | – | 10 | – | 179
11 | O=C([C@H](CO)c1ccccc1Cl)N1Cc2cn(S(=O)(=O)c3cnc4occc4c3)nc2C1 [Compound 86, (2S)-2-(2-chlorophenyl)-1-(2-{furo[2,3-b]pyridine-5-sulfonyl}-2H,4H,5H,6H-pyrrolo[3,4-c]pyrazol-5-yl)-3-hydroxypropan-1-one] | – | 1.8 | – | –
12 | O=C([C@H](O)c1ccccc1F)N1Cc2cn(S(=O)(=O)c3ccc(OC(F)F)cc3)nc2C1 [Compound 72, (2R)-1-[2-[4-(difluoromethoxy)benzenesulfonyl]-4H,6H-pyrrolo[3,4-c]pyrazol-5-yl]-2-(2-fluorophenyl)-2-hydroxyethanone] | – | 6 | – | –

The remaining lines, values ahead:

Row | AC50 [1] [nM] | AC50 [2] [nM] | PKM2 % activation [1] [%] | PKR % activation [2] [%] | Compound
13 | 93 | 62 | 89 | 115 | Cc1cccc([C@@]2(C(=O)N3Cc4cn(S(=O)(=O)c5ccc6ncsc6c5)nc4C3)CCOC2)n1 (single isomer, unassigned) [Compound 35, 6-({5-[(3S)-3-(6-methylpyridin-2-yl)oxolane-3-carbonyl]-2H,4H,5H,6H-pyrrolo[3,4-c]pyrazol-2-yl}sulfonyl)-1,3-benzothiazole or 6-({5-[(3R)-3-(6-methylpyridin-2-yl)oxolane-3-carbonyl]-2H,4H,5H,6H-pyrrolo[3,4-c]pyrazol-2-yl}sulfonyl)-1,3-benzothiazole]
14 | 147 | 72 | – | – | NC(C(=O)N1Cc2cn(S(=O)(=O)c3ccc4ncsc4c3)nc2C1)c1cccc(C(F)(F)F)c1 (racemic) [Compound 26, 2-amino-1-[2-(1,3-benzothiazole-6-sulfonyl)-2H,4H,5H,6H-pyrrolo[3,4-c]pyrazol-5-yl]-2-[3-(trifluoromethyl)phenyl]ethan-1-one]
15 | 38 | 82 | – | – | CC(O)C(C(=O)N1Cc2cn(S(=O)(=O)c3ccc4ncsc4c3)nc2C1)c1ccccc1 (single isomer, unassigned) [Compound 5]
16 | – | 210 | – | – | COC(C(=O)N1Cc2cn(S(=O)(=O)c3ccc(OC(F)F)cc3)nc2C1)c1ccccc1F (racemic) [Compound 98, 1-{2-[4-(difluoromethoxy)benzenesulfonyl]-2H,4H,5H,6H-pyrrolo[3,4-c]pyrazol-5-yl}-2-(2-fluorophenyl)-2-methoxyethan-1-one]
17 | – | 5 | – | – | O=C([C@H](CO)c1ccccc1)N1Cc2cn(S(=O)(=O)c3ccc4ncccc4c3)nc2C1 [Compound 82, (2S)-3-hydroxy-2-phenyl-1-[2-(quinoline-6-sulfonyl)-2H,4H,5H,6H-pyrrolo[3,4-c]pyrazol-5-yl]propan-1-one]
18 | – | 430 | – | – | Cn1ncc2ccc(S(=O)(=O)n3cc4c(n3)CN(C(=O)[C@H](CO)c3ccccc3)C4)cc21 [Compound 90, (2S)-3-hydroxy-1-{2-[(1-methyl-1H-indazol-6-yl)sulfonyl]-2H,4H,5H,6H-pyrrolo[3,4-c]pyrazol-5-yl}-2-phenylpropan-1-one]
19 | – | > 10000 | – | 0 | Cc1ncccc1[C@@H](N)C(=O)N1Cc2cn(S(=O)(=O)c3ccc4ncsc4c3)nc2C1 (single isomer, unassigned) [Compound 55, (2R)-2-amino-1-[2-(1,3-benzothiazole-6-sulfonyl)-2H,4H,5H,6H-pyrrolo[3,4-c]pyrazol-5-yl]-2-(2-methylpyridin-3-yl)ethan-1-one or (2S)-2-amino-1-[2-(1,3-benzothiazole-6-sulfonyl)-2H,4H,5H,6H-pyrrolo[3,4-c]pyrazol-5-yl]-2-(2-methylpyridin-3-yl)ethan-1-one]
20 | – | 8.5 | – | 100 | O=C([C@H](O)c1ncccc1F)N1Cc2cn(S(=O)(=O)c3ccc4ncsc4c3)nc2C1 (single isomer, unassigned) [Compound 74, (2R)-1-[2-(1,3-benzothiazole-6-sulfonyl)-2H,4H,5H,6H-pyrrolo[3,4-c]pyrazol-5-yl]-2-(3-fluoropyridin-2-yl)-2-hydroxyethan-1-one or (2S)-1-[2-(1,3-benzothiazole-6-sulfonyl)-2H,4H,5H,6H-pyrrolo[3,4-c]pyrazol-5-yl]-2-(3-fluoropyridin-2-yl)-2-hydroxyethan-1-one]
21 | – | 591 | – | 38 | Cc1cccc([C@@]2(C(=O)N3Cc4cn(S(=O)(=O)c5ccc6ncsc6c5)nc4C3)CCOC2)n1 (single isomer, unassigned) [Compound 36, 6-({5-[(3S)-3-(6-methylpyridin-2-yl)oxolane-3-carbonyl]-2H,4H,5H,6H-pyrrolo[3,4-c]pyrazol-2-yl}sulfonyl)-1,3-benzothiazole or 6-({5-[(3R)-3-(6-methylpyridin-2-yl)oxolane-3-carbonyl]-2H,4H,5H,6H-pyrrolo[3,4-c]pyrazol-2-yl}sulfonyl)-1,3-benzothiazole]
22 | – | 48 | – | – | Cc1ccccc1[C@@H](N)C(=O)N1Cc2cn(S(=O)(=O)c3ccc4ncsc4c3)nc2C1 [Compound 59, (2R)-2-amino-1-[2-(1,3-benzothiazole-6-sulfonyl)-2H,4H,5H,6H-pyrrolo[3,4-c]pyrazol-5-yl]-2-(2-methylphenyl)ethan-1-one]
